These results are taken from patent publication US8546427B2, “Tetrahydroquinoline derivatives” (Hoffmann-La Roche Inc., priority 2010, dated 2013).

In this test the test system is AMP-activated protein kinase (AMPK). The experiment in a line: ADP Quest assay for AMPK activators. The note with it: fold of AMPK activation to phosphorylate SAMS peptide without and with an activator at the concentration of 30 μM. It counts as biochemical. The arrangement: key: fold AMPK activation at 30 μM activator vs none. The protocol:
This method evaluates AMP-activated protein kinase (AMPK) activity through detecting the accumulation of ADP product using an ADP Quest kit and determining the E30 values of the small molecular AMPK activators. ADP Quest kit (DiscoveRx, Fremont, Calif.) is stored at −20° C. before use. Before an experiment, thaw the kit (include assay buffer, ADP standard solution, reagent A and reagent B) and equilibrate to room temperature. Dispense the ADP Quest reagents into single-use aliquots and store at −20° C. The compound concentrations typically range from 0 μM to 100 μM by 2-fold dilution. AMP concentrations range from 0.98 μM to 1 mM as the reference control. In an assay, thaw and equilibrate the assay buffer, reagent A and reagent B to room temperature for 30 minutes prior to use. Mix ATP, SAMS peptide substrate and compound, and place them into the 384-well assay plate. Add reagent A and B based on the assay kit protocol. Incubate the assay plate at room temperature for 30 minutes after addition the mixture followed by the addition of AMPK protein (Invitrogen, CA) to initiate the AMPK phosphorylation reaction. At the same time, reactions with AMPK activator AMP in the absence of enzyme is included as blank control. The reaction fluorescence signal is monitored and recorded on Envision in kinetic mode with the excitation wavelength of 530 nm and emission wavelength of 590 nm. The E30 value, defined as the fold of AMPK activation to phosphorylate SAMS peptide without and with an activator at the concentration of 30 μM, is calculated and analyzed using Prism 5.0.
`CC1(C)CC(c2ccccc2NS(=O)(=O)c2cccnc2)Nc2ccc(C(=O)O)cc21` (centres unmarked) [Example-34, 4,4-Dimethyl-2-[2-(pyridine-3-sulfonylamino)-phenyl]-1,2,3,4-tetrahydro-quinoline-6-carboxylic acid] came in with an E30 of 2.39.

The compound `CC1(C)CC(c2ccccc2NC(=O)c2ccccc2F)Nc2ccc(C(=O)O)cc21` (centres unmarked) [Example-35, 2-[2-(2-Fluoro-benzoylamino)-phenyl]-4,4-dimethyl-1,2,3,4-tetrahydro-quinoline-6-carboxylic acid] displayed an E30 of 1.23.

Consider `CC1(C)CC(c2ccccc2NS(=O)(=O)c2cccnc2)Nc2ccc(Cl)cc21` (centres unmarked) [Example-36, Pyridine-3-sulfonic acid [2-(6-chloro-4,4-dimethyl-1,2,3,4-tetrahydro-quinolin-2-yl)-phenyl]-amide], for which the E30 was 1.34.

Regarding `CC1(C)CC(c2ccccc2NC(=O)c2cccc(F)c2)Nc2ccc(C(=O)O)cc21` (centres unmarked) [Example-37, 2-[2-(3-Fluoro-benzoylamino)-phenyl]-4,4-dimethyl-1,2,3,4-tetrahydro-quinoline-6-carboxylic acid], the E30 turned out to be 1.20.

In turn, `CC1(C)CC(c2ccccc2NS(=O)(=O)c2ccccc2F)Nc2ccc(C(=O)O)cc21` (centres unmarked) [Example-39, 2-[2-(2-Fluoro-benzenesulfonylamino)-phenyl]-4,4-dimethyl-1,2,3,4-tetrahydro-quinoline-6-carboxylic acid] yielded an E30 of 2.69.

Take `CC1(C)CC(c2ccccc2NS(=O)(=O)c2ccc(F)cc2)Nc2ccc(C(=O)O)cc21` (centres unmarked) [Example-40, 2-[2-(4-Fluoro-benzenesulfonylamino)-phenyl]-4,4-dimethyl-1,2,3,4-tetrahydro-quinoline-6-carboxylic acid]: the E30 worked out at 3.01.

As to `CC1(C)CC(c2ccccc2NS(=O)(=O)c2ccccc2)Nc2ccc(C(=O)O)cc21` (centres unmarked) [Example-41, 2-(2-Benzenesulfonylamino-phenyl)-4,4-dimethyl-1,2,3,4-tetrahydro-quinoline-6-carboxylic acid], the E30 is on record as 2.63.

The compound `CC1(C)CC(c2ccccc2NS(=O)(=O)c2cccc(F)c2)Nc2ccc(C(=O)O)cc21` (centres unmarked) [Example-42, 2-[2-(3-Fluoro-benzenesulfonylamino)-phenyl]-4,4-dimethyl-1,2,3,4-tetrahydro-quinoline-6-carboxylic acid] yielded an E30 of 2.41.

As to `CC1(C)CC(c2ccccc2NS(=O)(=O)c2cccc(F)c2)Nc2ccc(C(F)(F)F)cc21` (centres unmarked) [Example-43, N-[2-(4,4-Dimethyl-6-trifluoromethyl-1,2,3,4-tetrahydro-quinolin-2-yl)-phenyl]-3-fluoro-benzenesulfonamide], the E30 came to 1.14.

In the case of `CC1(C)CC(c2ccccc2NS(=O)(=O)c2ccccc2F)Nc2ccc(C(F)(F)F)cc21` (centres unmarked) [Example-44, N-[2-(4,4-Dimethyl-6-trifluoromethyl-1,2,3,4-tetrahydro-quinolin-2-yl)-phenyl]-2-fluoro-benzenesulfonamide], the E30 is 1.15.

Take `CC1(C)CC(c2ccccc2NS(=O)(=O)c2ccc(F)cc2)Nc2ccc(C(F)(F)F)cc21` (centres unmarked) [Example-45, N-[2-(4,4-Dimethyl-6-trifluoromethyl-1,2,3,4-tetrahydro-quinolin-2-yl)-phenyl]-4-fluoro-benzenesulfonamide]: the E30 stood at 1.15.

`CCS(=O)(=O)Nc1ccccc1C1CC(C)(C)c2cc(C(F)(F)F)ccc2N1` (centres unmarked) [Example-46, Ethanesulfonic acid [2-(4,4-dimethyl-6-trifluoromethyl-1,2,3,4-tetrahydro-quinolin-2-yl)-phenyl]-amide]: the E30 was 1.20.

The compound `CC(C)S(=O)(=O)Nc1ccccc1C1CC(C)(C)c2cc(C#N)ccc2N1` (centres unmarked) [Example-50, Propane-2-sulfonic acid [2-(6-cyano-4,4-dimethyl-1,2,3,4-tetrahydro-quinolin-2-yl)-phenyl]-amide] gave an E30 of 1.19.

Take `CC1(C)CC(c2cccc(NS(=O)(=O)c3ccc(F)cc3)c2)Nc2ccc(C(F)(F)F)cc21` (centres unmarked) [Example-58, N-[3-(4,4-Dimethyl-6-trifluoromethyl-1,2,3,4-tetrahydro-quinolin-2-yl)-phenyl]-4-fluoro-benzenesulfonamide]: the E30 turned out to be 1.34.
